Data on 1 compound can be found in patent US12528760B2 (DOMPÉ FARMACEUTICI S.P.A., priority 2019, dated 2026).

The term solubility denotes the dissolved amount per volume that the medium holds.

This data set can be described thus: Solubility of Lysine in 2-Methyl-1-propanol. It counts as physicochemical. The following applies: organic solvent or mixture.

≈ marks a conversion by molar mass, not a printed value.

In the case of `NCCCC[C@H](N)C(=O)O` [Lysine], the solubility was approximately 26 mg/mL (≈ 178 mM).
